This note sets out measurements from patent US9266832B2, “Compounds for the treatment of neurodegenerative diseases” (Katholieke Universiteit Levun, priority 2010, dated 2016).

The test system of the assay is M17-TAU P301L cells. As to the kind of experiment: Tau-induced toxicity experiment: LDH leakage of retinoic acid incubated M17-TAU P301L cells. In kind it is cell-based. Conditions: Homo sapiens, Neuroblastoma cell, 168 h; reduction of LDH activity of retinoic acid incubated M17-TAU P301L neuroblastoma cells, 7 days. The source says: A TAU expression plasmid was constructed by sub-cloning the cDNA of human TAU-P301L (encoding for TAU with proline 301 substituted by a leucine residue) into mammalian expression vector pcDNA3.1 resulting in plasmid pcDNA3.1-TAU P301L. Plasmids pcDNA3.1 and pcDNA3.1-TAU P301L were transfected to human neuroblastoma cells ([…]; ATCC No. CRL-2267) and independent clonal lines with the plasmids stably integrated into the genome were selected. […] Expression of the TAU P301L genes in the cell lines was confirmed by Western analysis.
In degenerated or dead cells lactate dehydrogenase (LDH) is leaked out of the cells into the extracellular environment due to a loss of plasma-membrane integrity. This principle was used to determine cytotoxicity by quantifying the level of leaked LDH into the growth medium.
The detailed method for determining TAU cytotoxicity was as follows: From appropriate precultures of M17-3.1 and M17-TAU(P301L) cells were seeded at 2500 cells/cm2 in Optimem Reduced Serum without phenol red (Gibco, Cat. 31985-047) supplemented with 1% fetal calf serum, 1 mM sodium pyruvate, 1× non-essential amino acids, 500 μg/ml G418 0.5× antibiotic/antimycotic. After 3 h of incubation at 37° C./5% CO2 1 volume of Optimem Reduced Serum (same as described above; except without fetal calf serum) supplemented with 2.5 μM retinoic acid (RA) was added. The cells were further incubated for 7 days. Subsequently, LDH activity was determined using Promega Cytotox 96 Non-Radioactive cytotoxicity assay, (Cat. G1780) according the supplier's instructions.
The M17-TAU P301L cell line made it possible to assess the ability of novel compounds to counteract TAU cytotoxicity. […] These measurements were used to calculate EC50 values of table 2.

As for `COc1ccc(Cc2ccc(C(=O)NCCc3c[nH]c4ccc(Cl)cc34)cc2)cc1` [Cpd056, N-(2-(5-chloro-1H-indol-3-yl)ethyl)-4-(4-methoxybenzyl)benzamide], a half-maximal effect (EC50) was put at 70 nM. Regarding `COc1cccc(Cc2cccc(C(=O)NCCc3c[nH]c4ccc(Cl)cc34)c2)c1F` [Cpd066, N-(2-(5-chloro-1H-indol-3-yl)ethyl)-3-(2-fluoro-3-methoxybenzyl)benzamide], a half-maximal effect (EC50) was put at 386 nM. The molecule `O=C(NCCc1c[nH]c2ccc(Cl)cc12)c1cccc(Cc2ccccc2)c1` [Cpd010, 3-benzyl-N-(2-(5-chloro-1H-indol-3-yl)ethyl)benzamide] showed an EC50 of 78 nM. The same measure for `O=C(NCCc1c[nH]c2ccc(Cl)cc12)c1ccc(Cc2cccc(F)c2F)cc1` [Cpd103, N-(2-(5-chloro-1H-indol-3-yl)ethyl)-4-(2,3-difluorobenzyl)benzamide]: 139 nM; for `O=C(NCCc1c[nH]c2ccc(Cl)cc12)c1cccc(Cc2cccs2)c1` [Cpd075, N-(2-(5-chloro-1H-indol-3-yl)ethyl)-3-(thiophen-2-ylmethyl)benzamide]: 30 nM; for `Cc1ccc2[nH]cc(CCNC(=O)c3ccc(Cc4cccc(F)c4)cc3)c2c1` [Cpd084, 4-(3-fluorobenzyl)-N-(2-(5-methyl-1H-indol-3-yl)ethyl)benzamide]: 26 nM. Consider `O=C(NCCc1c[nH]c2ccc(Cl)cc12)c1ccc(Cc2cccc(Cl)c2)cc1` [Cpd046, N-(2-(5-chloro-1H-indol-3-yl)ethyl)-4-(3-chlorobenzyl)benzamide], for which a half-maximal response (EC50) required 7 nM. The value for `O=C(NCCc1c[nH]c2ccc(Cl)cc12)c1ccc(Cc2ccncc2)cc1` [Cpd086, N-(2-(5-chloro-1H-indol-3-yl)ethyl)-4-(pyridin-4-ylmethyl)benzamide] was 151 nM.

`O=C(NCCc1c[nH]c2ccc(Cl)cc12)c1cccc(CNC2CCCCC2)c1` [Cpd024, N-(2-(5-chloro-1H-indol-3-yl)ethyl)-3-((cyclohexylamino)methyl)benzamide] registered an EC50 of 724 nM. The value for `O=C(NCCc1c[nH]c2ccc(Cl)cc12)c1cccc(Cc2ccsc2)c1` [Cpd076, N-(2-(5-chloro-1H-indol-3-yl)ethyl)-3-(thiophen-3-ylmethyl)benzamide] was 29 nM; that for `COc1ccccc1Cc1ccc(C(=O)NCCc2c[nH]c3ccc(Cl)cc23)cc1` [Cpd029, N-(2-(5-chloro-1H-indol-3-yl)ethyl)-4-(2-methoxybenzyl)benzamide] was 84 nM. For the molecule `N#Cc1ccc(Cc2ccc(C(=O)NCCc3c[nH]c4ccc(Cl)cc34)cc2)cc1` [Cpd031, N-(2-(5-chloro-1H-indol-3-yl)ethyl)-4-(4-cyanobenzyl)benzamide], the EC50 was found to be 16 nM.
